What all share (conditions): 1 mM NADPH, ATR1 reductase, 100 mM Na/K phosphate pH 5.0, 26 °C, 1 h
For assay [1], the target named is VvCYP76F14 (from "L35", full-bodied) (Vitis vinifera, UniProt A0A1B2ZBX8, L298V, form not given). An excerpt:
(§1) UPLC-MS/MS substrate depletion kinetics on VvCYP76F14 (from "L35", full-bodied)

The target in assay [2] is VvCYP76F14 (from "L35", full-bodied) (Vitis vinifera, UniProt A0A1B2ZBX8, I120L, form not given).
Excerpt: as §1

For assay [3], the target named is VvCYP76F14 (from "L35", full-bodied) (Vitis vinifera, UniProt A0A1B2ZBX8, F435A, form not given).
Chain of VvCYP76F14 (from "L35", full-bodied) (Vitis vinifera, UniProt A0A1B2ZBX8, F435A, form not given) (A0A1B2ZBX8 entry or part of it F435A, form open): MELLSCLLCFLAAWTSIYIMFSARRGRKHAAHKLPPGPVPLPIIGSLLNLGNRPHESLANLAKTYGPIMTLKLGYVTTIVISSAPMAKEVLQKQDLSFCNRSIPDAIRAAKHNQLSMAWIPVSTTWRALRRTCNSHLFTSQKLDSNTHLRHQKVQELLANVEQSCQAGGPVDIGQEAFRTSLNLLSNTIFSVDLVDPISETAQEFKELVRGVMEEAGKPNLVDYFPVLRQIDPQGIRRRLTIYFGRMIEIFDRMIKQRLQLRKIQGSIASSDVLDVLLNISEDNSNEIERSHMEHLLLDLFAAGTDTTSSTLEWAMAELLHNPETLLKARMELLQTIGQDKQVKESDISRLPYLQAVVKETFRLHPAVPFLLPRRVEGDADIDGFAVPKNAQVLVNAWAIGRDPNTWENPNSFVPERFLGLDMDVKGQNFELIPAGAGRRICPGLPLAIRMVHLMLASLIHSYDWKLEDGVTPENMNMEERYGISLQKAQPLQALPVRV
Excerpt: as §1

For assay [4], the target named is VvCYP76F14 (from "L35", full-bodied) (Vitis vinifera, UniProt A0A1B2ZBX8, G304A, form not given).
Chain of VvCYP76F14 (from "L35", full-bodied) (Vitis vinifera, UniProt A0A1B2ZBX8, G304A, form not given) (A0A1B2ZBX8 entry or part of it G304A, form open): as the sequence (A0A1B2ZBX8 entry or part of it F435A, form open) above, with G304A, A435F counted along it
Excerpt: as §1

Assay [5] deals with VvCYP76F14 (from "L35", full-bodied) (Vitis vinifera, UniProt A0A1B2ZBX8, T188A, form not given).
Chain of VvCYP76F14 (from "L35", full-bodied) (Vitis vinifera, UniProt A0A1B2ZBX8, T188A, form not given) (A0A1B2ZBX8 entry or part of it T188A, form open): as the sequence (A0A1B2ZBX8 entry or part of it F435A, form open) above, with T188A, A435F counted along it
Excerpt: as §1

Assay [6] concerns the target VvCYP76F14 (from "L35", full-bodied) (Vitis vinifera, UniProt A0A1B2ZBX8, S485A, form not given).
Excerpt: as §1

In assay [7] the target is VvCYP76F14 (from "L35", full-bodied) (Vitis vinifera, UniProt A0A1B2ZBX8).
Chain of VvCYP76F14 (from "L35", full-bodied) (Vitis vinifera, UniProt A0A1B2ZBX8) (A0A1B2ZBX8 entry or part of it): as the sequence (A0A1B2ZBX8 entry or part of it F435A, form open) above, with A435F counted along it
Excerpt: as §1

Assay [8] has as its target VvCYP76F14 (from "L35", full-bodied) (Vitis vinifera, UniProt A0A1B2ZBX8, D306A, form not given).
Excerpt: as §1

In general, Km refers to the concentration of substrate that gives half-maximal velocity.

Chain of VvCYP76F14 (from "L35", full-bodied) (Vitis vinifera, UniProt A0A1B2ZBX8, D306A, form not given) (A0A1B2ZBX8 entry or part of it D306A, form open): as the sequence (A0A1B2ZBX8 entry or part of it F435A, form open) above, with D306A, A435F counted along it
Chain of VvCYP76F14 (from "L35", full-bodied) (Vitis vinifera, UniProt A0A1B2ZBX8, S485A, form not given) (A0A1B2ZBX8 entry or part of it S485A, form open): as the sequence (A0A1B2ZBX8 entry or part of it F435A, form open) above, with A435F, S485A counted along it
Chain of VvCYP76F14 (from "L35", full-bodied) (Vitis vinifera, UniProt A0A1B2ZBX8, L298V, form not given) (A0A1B2ZBX8 entry or part of it L298V, form open): as the sequence (A0A1B2ZBX8 entry or part of it F435A, form open) above, with L298V, A435F counted along it
Chain of VvCYP76F14 (from "L35", full-bodied) (Vitis vinifera, UniProt A0A1B2ZBX8, I120L, form not given) (A0A1B2ZBX8 entry or part of it I120L, form open): as the sequence (A0A1B2ZBX8 entry or part of it F435A, form open) above, with I120L, A435F counted along it

With `C=CC(C)(O)CCC=C(C)C` (centres unmarked) [linalool], the Michaelis constant (Km) was 74.7 ± 7.89 µM in assay [1], 156 ± 12.8 µM in assay [2] and 288 ± 19.3 µM in assay [3].
Consider `C=CC(C)(O)CC/C=C(\C)CO` (centres unmarked) [(E)-8-hydroxylinalool], for which the Km in assay [4] is 170 ± 13.6 µM; in assay [5] it was 77.4 ± 8.56 µM.
In the case of `C=CC(C)(O)CC/C=C(\C)C=O` (centres unmarked) [(E)-8-oxolinalool], the Michaelis-Menten constant (Km) was 172 ± 9.99 µM in assay [6], 41.4 ± 4.93 µM in assay [7] and 269 ± 17.7 µM in assay [8].

(Values after paper PMC10885137, “Site-Directed Mutagenesis of VvCYP76F14 (Cytochrome P450) Unveils Its Potential for Selection in Wine Grape Varieties Linked to the Development of Wine Bouquet” (Journal of Agricultural and Food Chemistry, 2024).)
